Data taken from PubChem BioAssay (NCI).
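Growth conditions: 96-well plates. Treatment: test compound, 48 hours, 5 concentrations. Analysis: linear interpolation between bracketing concentrations; unreached endpoints set to highest concentration. GI50: concentration for 50% inhibition of growth. TGI marks complete inhibition of growth.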

Columns and labels:
Experiment in all cases: NCI-60 cell line screen, 48 h
IGROV1 ovarian = test system: IGROV1 ovarian
HOP-92 NSCLC = test system: HOP-92 NSCLC
MALME-3M melanoma = test system: MALME-3M melanoma
MDA-MB-435 = test system: MDA-MB-435
HCT-116 colon = test system: HCT-116 colon
NCI-H460 lung = test system: NCI-H460 lung
T-47D breast = test system: T-47D breast
HS 578T breast = test system: HS 578T breast
LOX IMVI melanoma = test system: LOX IMVI melanoma
HL-60(TB) leukemia = test system: HL-60(TB) leukemia
UACC-62 melanoma = test system: UACC-62 melanoma
KM12 colon = test system: KM12 colon
PC-3 prostate = test system: PC-3 prostate
DU-145 prostate = test system: DU-145 prostate
SK-MEL-5 melanoma = test system: SK-MEL-5 melanoma
COLO 205 colon = test system: COLO 205 colon
OVCAR-4 ovarian = test system: OVCAR-4 ovarian
ACHN renal = test system: ACHN renal
OVCAR-8 ovarian = test system: OVCAR-8 ovarian
EKVX NSCLC = test system: EKVX NSCLC
UACC-257 melanoma = test system: UACC-257 melanoma
786-0 renal = test system: 786-0 renal
SK-MEL-2 melanoma = test system: SK-MEL-2 melanoma
SW-620 colon = test system: SW-620 colon
A498 renal = test system: A498 renal
SNB-19 CNS = test system: SNB-19 CNS
SK-OV-3 ovarian = test system: SK-OV-3 ovarian
SN12C renal = test system: SN12C renal
SF-539 CNS = test system: SF-539 CNS
NCI-H226 lung = test system: NCI-H226 lung
RXF 393 renal = test system: RXF 393 renal
M14 melanoma = test system: M14 melanoma
OVCAR-3 ovarian = test system: OVCAR-3 ovarian
A549 NSCLC = test system: A549 NSCLC
NCI/ADR-RES ovarian = test system: NCI/ADR-RES ovarian
U251 CNS = test system: U251 CNS
CAKI-1 renal = test system: CAKI-1 renal
HCC-2998 colon = test system: HCC-2998 colon
OVCAR-5 ovarian = test system: OVCAR-5 ovarian
HOP-62 NSCLC = test system: HOP-62 NSCLC
BT-549 breast = test system: BT-549 breast
MDA-MB-231 breast = test system: MDA-MB-231 breast
UO-31 renal = test system: UO-31 renal
SF-268 CNS = test system: SF-268 CNS
TK-10 renal = test system: TK-10 renal
HT29 colon = test system: HT29 colon
MCF7 breast = test system: MCF7 breast
SK-MEL-28 melanoma = test system: SK-MEL-28 melanoma
SNB-75 CNS = test system: SNB-75 CNS
NCI-H23 lung = test system: NCI-H23 lung
HCT-15 colon = test system: HCT-15 colon
RPMI-8226 leukemia = test system: RPMI-8226 leukemia
MOLT-4 leukemia = test system: MOLT-4 leukemia
K-562 leukemia = test system: K-562 leukemia
SF-295 CNS = test system: SF-295 CNS
CCRF-CEM leukemia = test system: CCRF-CEM leukemia
NCI-H522 lung = test system: NCI-H522 lung

Compound C=C[C@H]1C[C@@H]2C[C@@H]3[C@H]4C/C=C\C(=O)NCCCC5NC(=O)C(=C(O)/C=C/[C@@H]4CC(=O)[C@H]3[C@@H]2[C@H]1C)C5=O (stereo not given in full) has a GI50 (IGROV1 ovarian) of 212 nM, a TGI (IGROV1 ovarian) of 434 nM and a GI50 (HOP-92 NSCLC) of 218 nM. For the same compound, the TGI (HOP-92 NSCLC) was 539 nM, the GI50 (MALME-3M melanoma) was 225 nM and the TGI (MALME-3M melanoma) was 560 nM. It also gave a GI50 (MDA-MB-435) of 203 nM, a TGI (MDA-MB-435) of 408 nM and a GI50 (HCT-116 colon) of 287 nM. For the same compound, the TGI (HCT-116 colon) was 1100 nM, the GI50 (NCI-H460 lung) was 348 nM and the TGI (NCI-H460 lung) was 1200 nM. The GI50 (T-47D breast) was 1650 nM, the TGI (T-47D breast) was 3520 nM and the GI50 (HS 578T breast) was 191 nM. The TGI (HS 578T breast) was 423 nM, the GI50 (LOX IMVI melanoma) was 187 nM and the TGI (LOX IMVI melanoma) was 368 nM. The GI50 (HL-60(TB) leukemia) was 1680 nM, the TGI (HL-60(TB) leukemia) was 3420 nM and the GI50 (UACC-62 melanoma) was 1450 nM. For the same compound, the TGI (UACC-62 melanoma) was 2880 nM, the GI50 (KM12 colon) was 1740 nM and the TGI (KM12 colon) was 3330 nM. It also gave a GI50 (PC-3 prostate) of 1360 nM, a TGI (PC-3 prostate) of 2760 nM and a GI50 (DU-145 prostate) of 191 nM. The TGI (DU-145 prostate) was 345 nM, the GI50 (SK-MEL-5 melanoma) was 161 nM and the TGI (SK-MEL-5 melanoma) was 309 nM. For the same compound, the GI50 (COLO 205 colon) was 1780 nM, the TGI (COLO 205 colon) was 3210 nM and the GI50 (OVCAR-4 ovarian) was 210 nM. It also gave a TGI (OVCAR-4 ovarian) of 413 nM, a GI50 (ACHN renal) of 180 nM and a TGI (ACHN renal) of 343 nM. For the same compound, the GI50 (OVCAR-8 ovarian) was 193 nM, the TGI (OVCAR-8 ovarian) was 380 nM and the GI50 (EKVX NSCLC) was 1130 nM. The TGI (EKVX NSCLC) was 2540 nM, the GI50 (UACC-257 melanoma) was 191 nM and the TGI (UACC-257 melanoma) was 369 nM. The GI50 (786-0 renal) was 173 nM, the TGI (786-0 renal) was 329 nM and the GI50 (SK-MEL-2 melanoma) was 1080 nM. It also gave a TGI (SK-MEL-2 melanoma) of 2580 nM, a GI50 (SW-620 colon) of 1660 nM and a TGI (SW-620 colon) of 3130 nM. It also gave a GI50 (A498 renal) of 175 nM, a TGI (A498 renal) of 369 nM and a GI50 (SNB-19 CNS) of 286 nM. For the same compound, the TGI (SNB-19 CNS) was 1000 nM, the GI50 (SK-OV-3 ovarian) was 242 nM and the TGI (SK-OV-3 ovarian) was 606 nM. For the same compound, the GI50 (SN12C renal) was 182 nM, the TGI (SN12C renal) was 342 nM and the GI50 (SF-539 CNS) was 248 nM. The TGI (SF-539 CNS) was 666 nM, the GI50 (NCI-H226 lung) was 166 nM and the TGI (NCI-H226 lung) was 379 nM. For the same compound, the GI50 (RXF 393 renal) was 165 nM, the TGI (RXF 393 renal) was 308 nM and the GI50 (M14 melanoma) was 253 nM. For the same compound, the TGI (M14 melanoma) was 822 nM, the GI50 (OVCAR-3 ovarian) was 183 nM and the TGI (OVCAR-3 ovarian) was 334 nM. For the same compound, the GI50 (A549 NSCLC) was 620 nM, the TGI (A549 NSCLC) was 1910 nM and the GI50 (NCI/ADR-RES ovarian) was 192 nM. The TGI (NCI/ADR-RES ovarian) was 365 nM, the GI50 (U251 CNS) was 1610 nM and the TGI (U251 CNS) was 3070 nM. The GI50 (CAKI-1 renal) was 191 nM, the TGI (CAKI-1 renal) was 374 nM and the GI50 (HCC-2998 colon) was 1410 nM. It also gave a TGI (HCC-2998 colon) of 2780 nM, a GI50 (OVCAR-5 ovarian) of 436 nM and a TGI (OVCAR-5 ovarian) of 1720 nM. For the same compound, the GI50 (HOP-62 NSCLC) was 165 nM, the TGI (HOP-62 NSCLC) was 310 nM and the GI50 (BT-549 breast) was 158 nM. For the same compound, the TGI (BT-549 breast) was 322 nM, the GI50 (MDA-MB-231 breast) was 232 nM and the TGI (MDA-MB-231 breast) was 537 nM. It also gave a GI50 (UO-31 renal) of 150 nM, a TGI (UO-31 renal) of 299 nM and a GI50 (SF-268 CNS) of 172 nM. The TGI (SF-268 CNS) was 334 nM, the GI50 (TK-10 renal) was 192 nM and the TGI (TK-10 renal) was 419 nM. The GI50 (HT29 colon) was 1880 nM, the TGI (HT29 colon) was 3580 nM and the GI50 (MCF7 breast) was 1240 nM. For the same compound, the TGI (MCF7 breast) was 2800 nM, the GI50 (SK-MEL-28 melanoma) was 203 nM and the TGI (SK-MEL-28 melanoma) was 399 nM. For the same compound, the GI50 (SNB-75 CNS) was 150 nM, the TGI (SNB-75 CNS) was 289 nM and the GI50 (NCI-H23 lung) was 627 nM. The TGI (NCI-H23 lung) was 1470 nM, the GI50 (HCT-15 colon) was 294 nM and the TGI (HCT-15 colon) was 949 nM. The GI50 (RPMI-8226 leukemia) was 1500 nM and the TGI (RPMI-8226 leukemia) was 3680 nM.
For COc1ccc(C2=Nn3c(nnc(Cc4ccc(Cl)cc4)c3=O)SC2)cc1, the TGI (IGROV1 ovarian) was > 100000 nM, the TGI (HOP-92 NSCLC) was > 100000 nM and the TGI (MALME-3M melanoma) was > 100000 nM. The TGI (MDA-MB-435) was 33400 nM, the TGI (HCT-116 colon) was > 100000 nM and the TGI (NCI-H460 lung) was > 100000 nM. For the same compound, the TGI (MOLT-4 leukemia) was > 100000 nM, the TGI (T-47D breast) was > 100000 nM and the TGI (HS 578T breast) was > 100000 nM. For the same compound, the TGI (LOX IMVI melanoma) was > 100000 nM, the TGI (HL-60(TB) leukemia) was > 100000 nM and the TGI (UACC-62 melanoma) was > 100000 nM. The TGI (KM12 colon) was > 100000 nM, the TGI (PC-3 prostate) was > 100000 nM and the TGI (DU-145 prostate) was > 100000 nM. The TGI (K-562 leukemia) was > 100000 nM, the TGI (SK-MEL-5 melanoma) was > 100000 nM and the TGI (COLO 205 colon) was > 100000 nM. For the same compound, the TGI (OVCAR-4 ovarian) was > 100000 nM, the TGI (ACHN renal) was > 100000 nM and the TGI (OVCAR-8 ovarian) was > 100000 nM. For the same compound, the TGI (EKVX NSCLC) was > 100000 nM, the TGI (UACC-257 melanoma) was > 100000 nM and the TGI (786-0 renal) was > 100000 nM. For the same compound, the TGI (SK-MEL-2 melanoma) was > 100000 nM, the TGI (SW-620 colon) was > 100000 nM and the TGI (A498 renal) was > 100000 nM. The TGI (SNB-19 CNS) was > 100000 nM, the TGI (SK-OV-3 ovarian) was > 100000 nM and the TGI (SN12C renal) was > 100000 nM. The TGI (SF-295 CNS) was > 100000 nM, the TGI (SF-539 CNS) was > 100000 nM and the TGI (NCI-H226 lung) was > 100000 nM. The TGI (RXF 393 renal) was > 100000 nM, the TGI (M14 melanoma) was 91000 nM and the TGI (OVCAR-3 ovarian) was 92200 nM. The TGI (A549 NSCLC) was > 100000 nM, the TGI (NCI/ADR-RES ovarian) was 53700 nM and the TGI (U251 CNS) was > 100000 nM. For the same compound, the TGI (CCRF-CEM leukemia) was > 100000 nM, the TGI (CAKI-1 renal) was > 100000 nM and the TGI (HCC-2998 colon) was > 100000 nM. For the same compound, the TGI (OVCAR-5 ovarian) was > 100000 nM, the TGI (HOP-62 NSCLC) was > 100000 nM and the TGI (BT-549 breast) was > 100000 nM. For the same compound, the TGI (MDA-MB-231 breast) was > 100000 nM, the TGI (UO-31 renal) was > 100000 nM and the TGI (SF-268 CNS) was > 100000 nM. For the same compound, the TGI (TK-10 renal) was > 100000 nM, the TGI (HT29 colon) was > 100000 nM and the TGI (MCF7 breast) was > 100000 nM. For the same compound, the TGI (SK-MEL-28 melanoma) was > 100000 nM, the TGI (NCI-H23 lung) was > 100000 nM and the TGI (HCT-15 colon) was > 100000 nM. The TGI (RPMI-8226 leukemia) was > 100000 nM and the TGI (NCI-H522 lung) was > 100000 nM.
